These results are taken from patent US20230048888A1, “USE OF TRIAZOLOTRIAZINE DERIVATIVE IN TREATMENT OF DISEASES” (ZHEJIANG VIMGREEN PHARMACEUTICALS, LTD., priority 2019, published 2023).

Data set [1] concerns haloperidol-induced stiffness. Put plainly: Haloperidol-induced Wistar rat stiffness model (bar test, rearing). In kind it is in vivo, Wistar rats. As to conditions: 10 mg/kg intragastric. On the procedure: Time of bar test: The stiffness of the rats was tested by the bar test. That is, a wooden bar with a diameter of 8 mm was fixed between 2 iron stands and was 10 cm from the bench top; and then, the rat's tail was grabbed to make its front paws rest on the wooden bar and its hind paws or buttocks on the ground. Generally, the rat needs to acclimate several times when it was tested for the first time. The time for the forelimbs to drop from the bar or the time for the hind limbs to leave the bench top were tested, each rat was tested 3 times. Number of standings: the number of standings of the rat was measured by the rearing test. That is, the rat was placed in a 27*52 cm cage and acclimate for 5 minutes, and the spontaneous activity behavior, i.e., the number of standings, of the rat within 10 minutes was recorded. When the rat's hind limbs stood with two forelimbs raised over the shoulders and touched the ground, one standing is counted, and the one forelimb lift was excluded. Generally, the rat would raise its forelimbs to touch the cage wall. If the rat raised its forelimbs over the shoulders several times without falling to the ground, only one standing was counted. The time of bar test was taken as a measurement index, including the average time and the maximum time. Long time indicates severe stiffness, short time indicates mild stiffness. After drug treatment, the shorter the time of bar test, the better the effect of the drug on relieving stiffness. The number of standings was counted by the rearing test. The more the number of standings, the more frequent the spontaneous exploration activity of the rat, and the lower the stiffness. The statistical analysis between groups was performed on the data by using Prism GraphPad 7.0 independent sample T test, and P<0.05 was considered as a significant difference.

In another data set the test system is B16F10 tumor cells. Put plainly: B16F10 murine melanoma model. The class given is in vivo. The settings on record: for Tumor inhibition rate (%): Day 18. On the procedure:
The B16F10 murine melanoma model is a classic melanoma pharmaceutical effect evaluation model, which is made by subcutaneously inoculating the same B16F10 tumor cells into female C57BL/6 mice. The test compounds were administrated to evaluate their inhibitory effects on tumor growth in the model.
B16F10 tumor cells were cultured in a DMEM medium containing inactivated 10% fetal bovine serum, 100 U/ml penicillin, 100 μg/ml streptomycin and 2 mM glutamine in an incubator at 37° C. in the presence of 5% CO2; and after the cells grew all over, the tumor cells were divided and passaged in respective flasks every 3 to 4 days. The tumor cells in the logarithmic growth phase were used for in vivo inoculation of tumors.
The B16F10 tumor cells resuspended in a serum-free DMEM culture solution were inoculated subcutaneously at 1×10^5/100 μl to the right ribs of experimental animals. In the second group, when the tumor grew to 75 mm^3, 12 animals with a uniform tumor volume were selected and administered according to the experimental design.
The first day of tumor inoculation was D0, the first, third, and fourth groups were dosed on the second day of tumor inoculation, and the second group was dosed when the tumor volume reached 75 mm^3.
Tumor volume: the tumor volume was measured 3 times a week with a vernier caliper, and the long and short diameters of the tumor were measured. The volume was calculated with a formula as follows:
volume=0.5×long diameter×short diameter^2.
Tumor growth inhibition rate (TGI, %)=(1-T/C)×100.
T/C(%)=(average tumor volume of treatment groups on the current day-average tumor volume of treatment groups on the initial day D0)/(average tumor volume of the control group on the current day-average tumor volume of the control group on the initial day D0)×100.

In data set [2] the test system is murine colon cancer MC38 cell line. Put plainly: Subcutaneous homotransplantation of murine colon cancer MC38 cell line in C57BL/6 female mice. In kind it is in vivo. As to conditions: for T/C (%) / TGI (%) / Tumor volume: Day 22. On the procedure: The MC38 mouse colon cancer cell model is a commonly used model for verifying a pharmaceutical effect on the colon cancer. It is mostly used to study the occurrence and metastasis direction of the colorectal cancer, and has become a common approach to the pharmaceutical effect verification for tumors. The anti-tumor effect of the subcutaneous homotransplantation of a test drug in a murine colon cancer MC38 cell line of C57BL/6 female mouse model was evaluated.
MC38 cells were cultured in a DMEM culture solution containing 10% fetal bovine serum. The MC38 cells in the exponential growth phase were collected and resuspended in PBS to a suitable concentration for subcutaneous tumor inoculation in mice.
Female mice were subcutaneously inoculated with 1×10^6 MC38 cells on the right side. The day of inoculation was defined as Day 0. On the second day (Day 1) of […] cell inoculation, the mice were administered randomly according to body weight. The solution of Compound 22 was prepared at 3 mg/mL and 10 mg/mL respectively for later use.
Formula for calculating tumor volume: tumor volume (mm^3)=½×(a×b^2) (a representing a long diameter and b representing a short diameter);
Tumor proliferation rate, T/C %, was a percentage ratio of tumor volume or tumor weight between the treatment group and the control group at a certain time point. It was calculated with a formula was as follows:
T/C %=TTV/CTV×100% (TTV (TTV: the average TV of the treatment group at a specific time point;
All experimental results were represented as the average tumor volume±SEM (mean standard error). Statistical analysis between different groups were conducted to select the optimal drug treatment point (usually after the last dosage). A comparison was conducted with the independent sample T test method to determine if there is a significant difference in tumor volume between the treatment group ad the control group. All data were analyzed with SPSS 18.0. P<0.05 indicated a significant difference.

Data set [3] in a line: Pharmacokinetic evaluation of Compound 22 in female BALB/c mice in different vehicles. As to conditions: mouse, plasma, po, 100 mg/kg, 100 mg/kg p.o. single; for half-life: read-out: T½ (converted). In kind it is in vivo. The procedure: BALB/c mice, female, 7-9 weeks old (the age of mice at the start of the experiment), weight: 19.2-22.1 g, […] (34 mice plus another 10 surplus mice). They were purchased from Shanghai Lingchang Biotechnology Co., Ltd. (LC), with animal certificate number: 2013001835211. Rearing environment: SPF level.
After single administration, plasma was collected from each group at 0.25 h, 0.5 h, 1 h, 2 h, 4 h, 6 h, 8 h and 24 h, with 3 mice at each time point, and the experiment was terminated after 24h. 10 remaining mice were used to collect blank plasma.

The nature of data set [4]: Pharmacokinetics of Compound 40 and benzene sulfonate thereof in ICR mice, PO. The settings on record: mouse, in vivo, PO 100 mg/kg (based on free base), 40% Hp-β-CD.
[5] abbreviates: 30 mg/kg p.o. QD combined with Anti-PD-1 100 μg/animal i.p.
[6] abbreviates: Group 1, vehicle 40% PEG400/60% water.
The mark [7] stands for this setting: Group 2, vehicle 40% (2-hydroxypropyl)-β-cyclodextrin.

Consider `CCn1c(=O)c2c(nc(/C=C/c3ccc(OC)c(OC)c3)n2C)n(CC)c1=O` [Istradefylline, reference compound], for which, in data set [1], the “Average on-bar time” value came to 10.33 ± 1.58 s and the “Maximum on-bar time” value was 15.38 ± 2.75 s. In data set [1] (1st hour after haloperidol), this compound registered a Number of standings of 23.25 ± 2.86.
Consider `Nc1nc(NCCc2ccc(NC3COC3)cc2)nc2nc(-c3ccco3)nn12` [Compound 22, 2-(furan-2-yl)-N5-(4-(oxetan-3-ylamino)phenethyl)-[1,2,4]triazolo[1,5-a][1,3,5]triazine-5,7-diamine], for which, in the data set with B16F10 tumor cells (50 mg/kg p.o. QD), the “Tumor inhibition rate (%)” value amounted to 22.1%. Besides, the “Tumor inhibition rate (%)” value in the data set on B16F10 tumor cells (50 mg/kg p.o. QD + Anti PD-1 10 mg/kg i.p. 2/WK) was found to be 48.1%. Also, the “Animal death / changes in body weight” value in the data set with B16F10 tumor cells (alone or combined with anti PD-1) was “No animal death or significant changes in body weight”. In data set [2] (30 mg/kg p.o. QD), the “T/C (%)” value came out at 66%, the “TGI (%)” value was 34% and the Tumor volume was 1205.60 ± 259.65 mm^3. Besides, in data set [2] (setting [5]), the “T/C (%)” value was 15%, the “TGI (%)” value was determined as 85% and the Tumor volume amounted to 268.89 ± 57.10 mm^3. For the same compound, in data set [2] (100 mg/kg p.o. QD), the “T/C (%)” value is 52%, the “TGI (%)” value is 48% and the Tumor volume came to 951.28 ± 116.30 mm^3. Besides, the “Animal death / changes in body weight” value in data set [2] (alone or combined with anti-PD-1 antibody) is given as “no animal death or significant changes in body weight”. In data set [3] (setting [6]), the AUC(0-inf) stood at 16100 ng·h/mL, the AUC(0-t) (commonly the area under the concentration-time curve up to a stated or last time point) is 15900 ng·h/mL, the concentration peaked (Cmax) at 2080 ng/mL and the Tmax (commonly the time from dosing to the highest level) amounted to 60 min. The half-life in data set [3] (setting [6]) was 182 min. Moreover, in data set [3] (setting [7]), the AUC(0-inf) is 28500 ng·h/mL; the AUC(0-t) stood at 28400 ng·h/mL; the Cmax (in general, the peak of the concentration-time curve) amounted to 5580 ng/mL; the Tmax came to 30 min. Besides, the half-life in data set [3] (setting [7]) was 160 min.
For the compound `Cn1nnc(-c2ccc(CCNc3nc(N)n4nc(-c5ccco5)nc4n3)cc2)n1` [Compound 40, N5-(4-(2-methyl-2H-tetrazol-5-yl)phenethyl)-2-(furan-2-yl)-[1,2,4]triazolo[1,5-a][1,3,5]triazine-5,7-diamine], in data set [4], the AUC(0-t) was determined as 11900 ng·h/mL, the highest level (Cmax) was 2900 ng/mL and the Tmax came out at 30 min. Moreover, in data set [4] (read-out: AUCINF—pred), the AUC(0-inf) came out at 12100 ng·h/mL. Besides, the half-life in data set [4] (read-out: T½ (converted)) is 256 min.
